Experimental data taken from patent publication US20100272642A1, “PET PROBE HAVING AN ALKOXY GROUP SUBSTITUTED BY FLUORINE AND HYDROXY GROUP” (TOHOKU UNIVERSITY, priority 2007, published 2010).
Entries after “also recorded” stand apart in the source; their conditions may differ.

What was measured:
[1] = target: T1, amyloid β protein (Homo sapiens, UniProt P05067); assay: Staining test on the brain section of patients with Alzheimer's disease; type: binding; settings: 100 μM compound in 50% ethanol, 10 minutes, fluorescence microscope
T1 construct: tissue Choju Medical Institute in Fukushimura Hospital; host or cells: Paraffin-embedded post-mortem human brain sections (temporal lobe or hippocampus)
From the text: The procedure of […] of the compounds of the present invention on the brain section of patients with Alzheimer's disease is explained as follows.
(1) The brain samples from the temporal lobe or hippocampus of patients pathologically definitely diagnosed as having Alzheimer's disease and normal elderly individuals were used. The samples were obtained from Choju Medical Institute in Fukushimura Hospital, our collaborative research institute, and the consent for the use for research purpose was obtained from the patients' deceased family members (Fukushimura Hospital, Ethic Committee Approval No. 20).
(2) The brain tissue embedded in the paraffin was thinly sectioned into 6 or 8 μm in thickness, extended on the slide glass, and dried. The paraffined brain section was deparaffined by washing with xylene 10 minutes×2, 100% ethanol 5 minutes×2, 90% ethanol 5 minutes, and running water 10 minutes in this order.
(3) As the pretreatment of staining by the compound of the present invention, the treatment to remove autofluorescence by lipofuscin was conducted. […]
(4) From 100 μM of the compound solution of the present invention dissolved in 50% ethanol, about 150 μl was added dropwise, and was reacted for 10 minutes. After being soaked in the tap water 5 times, it was encapsulated with Flour Save Reagent (Calbiochem) and examined with a fluorescence microscope (Nikon, Eclipse 80i). […]

[2] = Evaluation of blood-brain barrier permeability and osseous accumulation of the [18F] labeled compound in mice; type: in vivo, mouse; settings: for % ID/g or ml (mean ± standard deviation), Blood plasma / % ID/g or ml (mean ± standard deviation), Bone / % ID/g or ml (mean ± standard deviation), Brain: male ICR mice, tail vein administration; for % ID/g or ml (mean ± standard deviation), Bone: bone (femur); for osseous accumulation: mice, 2, 30, 60 minutes after administration, in words; for defluorination in vivo / wash-out from the brain: mice; for defluorination in vivo: suggested from osseous accumulation; for wash-out from the brain: compared with [18F]BF-227
Experimental: The physiological saline solution containing [^18F] BF-837 or [^18F] THK-853 was administered into the tail vein of the male ICR mice (6-7 weeks of age), and blood-brain barrier permeability and osseous accumulation of each labeled compound were evaluated based on accumulation of radioactive in the brain tissue and the bone tissue at 2, 30, 60 minutes after.
The radiochemical purity of the used physiological saline containing the labeled compound used was 95% or greater, and specific activity was 18.5 to 148 GBq/μmol, and 1.11-2.22 MBq of the labeled compound per mouse was administered. In the evaluation of radiation accumulation, the ratio of radiation per unit weight of the evaluation tissue against the whole radiation administered (% Injected Dose/g of tissue; % ID/g) was used as the index. For measurement of the radiation, the gamma counter (1480 WIZARD, PerkinElmer, Inc.) was used. The experimental procedure was as follows. The labeled compound was administered into the caudal vein and dislocation in the cervical spine of the mice was conducted under the ether anesthesia at 2, 30, and 60 minutes after, and after promptly harvesting the blood from the heart, the whole brain (including the cerebellum, brain stem) and the femur were removed.

T1 sequence (P05067 672-713 limits assumed): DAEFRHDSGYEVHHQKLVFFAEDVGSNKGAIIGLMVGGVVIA

Structure (SMILES) | binding to amyloid β protein in the brain section [1] | % ID/g or ml (mean ± standard deviation), Blood plasma ([2]; 2 minutes after) | % ID/g or ml (mean ± standard deviation), Blood plasma ([2]; 30 minutes after) | % ID/g or ml (mean ± standard deviation), Blood plasma ([2]; 60 minutes after) | % ID/g or ml (mean ± standard deviation), Bone ([2]; 2 minutes after) | % ID/g or ml (mean ± standard deviation), Bone ([2]; 30 minutes after) | % ID/g or ml (mean ± standard deviation), Bone ([2]; 60 minutes after) | % ID/g or ml (mean ± standard deviation), Brain ([2]; 2 minutes after) | % ID/g or ml (mean ± standard deviation), Brain ([2]; 30 minutes after) | % ID/g or ml (mean ± standard deviation), Brain ([2]; 60 minutes after) | osseous accumulation [2] | defluorination in vivo [2] | wash-out from the brain [2]
CNc1ccc(-c2nc3ccc(OC(CO)CF)cc3s2)cc1 (stereo not shown) [THK-837] | bound to amyloid β protein |  |  |  |  |  |  |  |  |  |  |  | 
CNc1ccc(/C=C/c2ccc(OC(CO)CF)cc2)cc1 (stereo not shown) [THK-853] | bound to amyloid β protein |  |  |  |  |  |  |  |  |  |  |  | 
CN(C)c1ncc(C=Cc2nc3ccc(OCCF)cc3o2)s1 [[^18F]BF-227, 2-[2-(2-dimethylaminothiazole-5-yl)ethenyl]-6-(2-fluoroethoxy)benzoxazole, reference compound] |  | 2.93 ± 0.08 % ID/g or ml | 2.14 ± 0.17 % ID/g or ml | 2.09 ± 0.15 % ID/g or ml | 1.59 ± 0.27 % ID/g or ml | 4.38 ± 1.24 % ID/g or ml | 7.04 ± 0.75 % ID/g or ml | 6.05 ± 0.45 % ID/g or ml | 1.91 ± 0.05 % ID/g or ml | 1.67 ± 0.14 % ID/g or ml | time dependence marked accumulation was observed | easily subjected to defluorination | 
CNc1ccc(-c2nc3ccc(OC(CO)CF)cc3s2)cc1 (stereo not shown) [[^18F]THK-837] |  | 3.30 ± 0.17 % ID/g or ml | 1.73 ± 0.26 % ID/g or ml | 1.35 ± 0.77 % ID/g or ml | 1.80 ± 0.17 % ID/g or ml | 1.27 ± 0.11 % ID/g or ml | 1.64 ± 0.12 % ID/g or ml | 6.54 ± 0.19 % ID/g or ml | 0.94 ± 0.08 % ID/g or ml | 0.43 ± 0.03 % ID/g or ml | not observed; also recorded: scarcely observed | not subjected to defluorination | clearly more excellent
CNc1ccc(/C=C/c2ccc(OC(CO)CF)cc2)cc1 (stereo not shown) [[^18F]THK-853] |  | 2.81 ± 0.37 % ID/g or ml | 2.11 ± 0.50 % ID/g or ml | 1.59 ± 0.12 % ID/g or ml | 1.64 ± 0.19 % ID/g or ml | 0.98 ± 0.20 % ID/g or ml | 0.96 ± 0.04 % ID/g or ml | 7.56 ± 0.87 % ID/g or ml | 1.31 ± 014 % ID/g or ml | 0.59 ± 0.04 % ID/g or ml | not observed; also recorded: scarcely observed | not subjected to defluorination | clearly more excellent
